Experimental findings from patent US20260232572A1, “INJECTABLE COMPOSITION, PHARMACEUTICAL FORMULATION INCLUDING THE SAME, AND METHOD FOR PREPARING THE COMPOSITION” (ONCONIC THERAPEUTICS INC., priority 2023, published 2026) are described below.

Read-outs that look alike come from different tables or passages of the source. Where only a bound is given, the exact number is not on record here.

A short description of series [1]: Bioavailability on oral administration, citrate of Compound 1 compared to free base. Format: in vivo. Particulars: orally administered.
A short description of series [2]: Solubility of citrate of Compound 1 depending on pH. Format: physicochemical.

Regarding `Cc1cccc(C)c1CNc1cc(C(=O)N2CCC2)cn2c(C)c(C)nc12.O=C(O)CC(O)(CC(=O)O)C(=O)O` [citrate of Compound 1, azetidin-1-yl{8-[(2,6-dimethylbenzyl)amino]-2,3-dimethylimidazo[1,2-a]pyridin-6-yl}methanone citrate], in series [1], the “AUC compared to Compound 1 free base” value was “at least five”. Moreover, in series [1], the “Cmax compared to Compound 1 free base” value is given as no less than 11 times. Besides, the “time to reach highest blood concentration” value in series [1] (compared to Compound 1 free base) was “within a short time compared to Compound 1”. Moreover, the solubility – broadly, the concentration that dissolves in the medium under given conditions – is less than 1500 µg/mL in series [2] (aqueous buffer, pH 3 or higher, particularly pH 3.3 or higher, read-out: solubility); “very excellent solubility” in series [2] (below pH 3); “excellent solubility” in series [2] (pH 3 to 4.7, due to SBE-β-CD).
